PMC7237710, “Thanatin Impairs Lipopolysaccharide Transport Complex Assembly by Targeting LptC–LptA Interaction and Decreasing LptA Stability” (Frontiers in Microbiology, 2020)
In brackets after ≈: the same amount, converted by molar mass. Entries after “also recorded” stand apart in the source; their conditions may differ. Residues, ends and D or L forms follow the SMILES beside them.

Key:
[1] = test system: E. coli and other Enterobacterial species; set-up: method as in Zhang et al., 2019; conditions: ref Zhang et al., 2019; cited from earlier work
LptC–LptA interaction = conditions: yeast two-hybrid system; ref Zhang et al., 2019; cited from earlier work
[2] = test system: E. coli permeabilized mutant NR698; assay: microbe, parasite or virus in culture; format: cell-based, Escherichia coli; conditions: 24 h
Experimental: (§1) The minimal inhibitory concentration (MIC) values of thanatin, thanatin scramble, and vancomycin (as a positive control) were assessed with a protocol adapted from [Wiegand et al. (2008)] using 96-well microtiter plates. Stationary phase cultures of the E. coli WT strain MG1655 ([Blattner et al., 1997]), the permeabilized mutants AS19 ([Sekiguchi and Iida, 1967]) and NR698 ([Ruiz et al., 2005]), and the BACTH strain BTH101 ([Karimova et al., 1998]; [Ouellette et al., 2017]) grown at 37°C in LB medium, were diluted in fresh medium adjusting the OD600 to a value of 0.05 and incubated in the presence of twofold decreasing concentrations of the compounds ranging from 64 μg/mL to 62.5 ng/mL. After 24 h of incubation at 37°C, the OD600 was measured by a plate reader (EnSpire Multimode Plate Reader, PerkinElmer). The MIC value was determined as the lowest concentration of compound leading to no detectable growth.

E. coli BTH101 = assay: microbe, parasite or virus in culture; format: cell-based, Escherichia coli
Experimental: as §1

[3] = test system: E. coli permeabilized mutant AS19; assay: microbe, parasite or virus in culture; format: cell-based, Escherichia coli; conditions: 24 h
Experimental: as §1

[4] = test system: LptA–LptA interaction (TM25LptA–TM18LptA, AA); assay: BACTH assay, inhibition of LptA–LptA interaction; format: cell-based, Escherichia coli; conditions: BTH101, 18 h, 30°C, 0.5 mM IPTG, 0.7, 1.0, 1.4, 2.8 μg/mL (sub-MIC); at least eight technical replicates from two independent experiments
Experimental: (§2) To study protein–protein interactions with the BACTH system, electrocompetent BTH101 cells were co-transformed with each pair of plasmids to be tested (Figure 2A), plated onto LB plates containing selective antibiotics (100 μg/mL ampicillin and 50 μg/mL spectinomycin) and incubated at 30°C for 24–48 h. Interaction efficiencies were quantified by determining the β-galactosidase activities in 96-well microtiter plates according to a protocol adapted from [Paschos et al. (2011)]. For this measurement, at least eight clones from each plasmid combination were analyzed for β-galactosidase activity in two independent experiments. […] The β-galactosidase activity was measured from 20 μL culture diluted in 80 μL PM2 buffer (70 mM Na2HPO4. 12H20, 30 mM NaH2PO4. H2O, 1 mM MgSO4, 0.2 mM MnSO4, pH 7.0) containing 8 mg/mL ortho-nitrophenyl-β-galactoside (ONPG), 0.01% SDS, and 50 mM β-mercaptoethanol. […] The optical densities at 420 and 550 nm were recorded for each sample using a plate reader (EnSpire Multimode Plate Reader, PerkinElmer) and the specific activity was calculated with the formula: Miller units = [OD420 - (1.75 × OD550)]/[t × OD600 × (volume in mL)] × 1000, where OD600 is the optical density at 600 nm after overnight incubation and t is the time in minutes needed for color formation.

LptC–LptAm interaction = assay: SPR, effect on LptC binding to immobilized LptAm; set-up: species or system Escherichia coli; conditions: peptide up to 1 μM followed by LptC injection at 10 μM, HBS-N, listed as Scr
Excerpt: (§3) Escherichia coli LptC lacking the first 23 residues of the transmembrane domain was expressed from a plasmid (LptC pQESH, QIAGEN) with an N-terminal His-Tag and purified as described ([Laguri et al., 2017]). LptC was expressed in ^15N enriched deuterated medium with specific ^13C-^1H labeling of Isoleucines δ1 and Leucine and Valine proR methyl groups according to standard protocols ([Kerfah et al., 2015]) with NMRbio precursors^1. LptAm coding for residues 28–159 followed by a […] TAG in a pET21b vector was expressed and purified as described ([Laguri et al., 2017]). Both proteins were exchanged to 50 mM Na2HPO4 pH 8.0, 150 mM NaCl buffer.
(§4) Surface plasmon resonance (SPR) experiments were performed on a Biacore T200 with a CM3 chip. HBS-P+ and HBS-N buffers (GE Healthcare) were used for immobilization and interactions, respectively. 66 Resonance units (RUs) of LptAm were immobilized on a flow cell by the amine (EDC-NHS) coupling method followed by ethanolamine saturation, with a flow cell modified only with EDC-NHS-ethanolamine as reference for subtractions. For interactions, protein and ligands were diluted in HBS-N running buffer and regeneration between injections achieved with a 30 s pulse of 10 mM HCl. Sensorgrams shown were subtracted with the reference flow cell as well as with injection of buffer alone.

E. coli WT strain MG1655 = assay: MIC determination, WT strain MG1655; format: cell-based, Escherichia coli
Experimental: as §1

LptC–LptAm complex = assay: NMR, disruption of LptC–LptAm complex; format: binding, Escherichia coli; conditions: 2D-[1H,13C]-methyl-SOFAST, 25°C, 20 μM LptC, 40 μM LptAm, 42 μM peptide, 50 mM Na2HPO4 pH 8.0, 150 mM NaCl, 10% D2O
Experimental: Nuclear magnetic resonance experiments were recorded at 25°C on Bruker 600 MHz spectrometer equipped with a triple resonance cryoprobe. […] Unlabeled LptAm at 40 μM prepared in the exact same buffer was added to LptC to achieve 100% of LptC complexed with LptAm. Thanatin or Scr at 42 μM was added to the complex and interaction experiments were followed using 2D-[^1H, ^13C]-methyl-SOFAST experiments. NMR experiments were processed and analyzed using Topspin 3.2 and CcpNmr 2.4.

[5] = test system: permeabilized E. coli mutants (AS19 and NR698); assay: MIC, permeabilized E. coli mutants; format: cell-based, Escherichia coli; conditions: permeabilized mutant strains; in words
Experimental: as §1

LptAm = conditions: SPR, Biacore T200, CM3 chip, HBS-N; peptide 0, 0.1, 1 μM; listed as Scr
Excerpt: as §3, §4

[6] = test system: LptC–LptAm interaction (T25LptC–TM18LptAm, CA); assay: BACTH assay, inhibition of LptC–LptAm interaction; format: cell-based, Escherichia coli; conditions: BTH101, 18 h, 30°C, 0.5 mM IPTG, 0.7, 1.0, 1.4 μg/mL (sub-MIC), at least eight technical replicates from two independent experiments
Experimental: as §2

[7] = in vivo; cited from earlier work
Excerpt: (§5) Due to its relevance in Gram-negative bacteria cell physiology, LPS biogenesis can be considered a promising target for the development of novel antibacterial molecules. Potent inhibitors of the lipid A biosynthesis were identified in past studies and are continuously in development ([Simpson and Trent, 2019]). Moreover, two compounds targeting the MsbA-mediated IM translocation process have been recently reported ([Ho et al., 2018]; [Zhang et al., 2018]). However, the only inhibitor of LPS biogenesis to have entered, so far, Phase III trials is Murepavadin, a macrocyclic peptidomimetic select ...

[8] = test system: Pseudomonas aeruginosa LptD; conditions: ref Srinivas et al., 2010; Lehman and Grabowicz, 2019; cited from earlier work
Excerpt: as §5

immobilized LptAm = assay: SPR, Kd of LptC–LptAm; set-up: species or system Escherichia coli; conditions: LptC (5.6–100 μM) over immobilized LptAm, CM3 chip, HBS-N, steady-state binding levels, read-out: Kd of LptC–LptAm interaction
Excerpt: as §3, §4

[9] = target: T1, His6-LptC_(24-191), LptC lacking the first 23 residues of the transmembrane domain (Escherichia coli, UniProt P0ADV9 24-191); assay: SPR; conditions: both partners purified
T1 sequence (looked up): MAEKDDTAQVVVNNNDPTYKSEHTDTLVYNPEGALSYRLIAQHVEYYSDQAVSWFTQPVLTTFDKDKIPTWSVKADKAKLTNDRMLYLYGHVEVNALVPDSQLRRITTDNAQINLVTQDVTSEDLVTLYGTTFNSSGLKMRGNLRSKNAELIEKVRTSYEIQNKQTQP

Clc1cc2c(c3ncccc13)OCN(CCc1ccccc1)C2 [IMB-881]
bactericidal activity [1]: bactericidal activity
disruption of LptC–LptA interaction (LptC–LptA interaction): inhibiting LptC–LptA interaction; also recorded: disrupts LptC–LptA interaction

CC[C@H](C)[C@H](NC(=O)[C@H](CS)NC(=O)[C@@H](NC(=O)[C@@H](N)Cc1ccc(O)cc1)C(C)C)C(=O)N[C@@H](CCCNC(=N)N)C(=O)N[C@@H](CCSC)C(=O)N[C@@H](CC(N)=O)C(=O)N[C@@H](CCCCN)C(=O)N[C@H](C(=O)N[C@@H](CO)C(=O)N1CCC[C@H]1C(=O)N[C@@H](CCCCN)C(=O)N[C@@H](CCC(N)=O)C(=O)N[C@@H](CCCNC(=N)N)C(=O)N[C@H](C(=O)N1CCC[C@H]1C(=O)NCC(=O)NCC(=O)N[C@@H](CCCNC(=N)N)C(=O)N[C@@H](CS)C(=O)N[C@@H](CCCCN)C(=O)O)[C@@H](C)O)[C@@H](C)CC [Thanatin scramble] (H-YVCIRMNKISPKQRTPGGRCK-OH; N-terminus and C-terminus assumed)
MIC ([2]; NR698, LB, 37°C, start OD600 0.05, twofold dilutions 64 μg/mL to 62.5 ng/mL, OD600 read-out): 32 to 64 µg/mL
MIC (E. coli BTH101; BTH101, LB, 24 h, 37°C, start OD600 0.05, twofold dilutions 64 μg/mL to 62.5 ng/mL, OD600 read-out): >64 µg/mL
MIC ([3]; AS19, LB, 37°C, start OD600 0.05, twofold dilutions 64 μg/mL to 62.5 ng/mL, OD600 read-out): 64 µg/mL (≈ 26.3 µM)
effect on LptA–LptA interaction (β-galactosidase activity) [4]: not capable of disrupting these periplasmic interactions in a dose-dependent manner
effect on LptC binding to immobilized LptAm (LptC–LptAm interaction): no effect on LptC binding
MIC (E. coli WT strain MG1655; MG1655, LB, 24 h, 37°C, start OD600 0.05, twofold dilutions 64 μg/mL to 62.5 ng/mL, OD600 read-out): above 64 μg/mL
antibacterial activity (E. coli WT strain MG1655; scrambled vs thanatin, in words): loses the antibacterial activity
disruption of LptC–LptAm complex (175Ile and 184Ile δ1 methyl shifts) (LptC–LptAm complex): did not change LptC–LptAm spectra; also recorded: fails to disrupt the LptC–LptA interaction in vivo (BACTH assay) and in vitro (NMR)
disruption of LptC–LptAm complex (175Ile and 184Ile δ1 methyl shifts) (LptC–LptAm complex; listed as thanatin scramble): no disruption of the LptC–LptAm complex
MIC relative to WT strain / antibacterial activity [5]: no significant difference relative to the WT strain
binding to immobilized LptAm (LptAm): no or little binding
effect on LptC–LptAm interaction (β-galactosidase activity) [6]: fails to disrupt the LptC–LptA interaction in vivo (BACTH assay)
effect on LptC–LptAm interaction (β-galactosidase activity) ([6]; listed as thanatin scramble): not capable of disrupting these periplasmic interactions in a dose-dependent manner

CN[C@H](CC(C)C)C(=O)N[C@H]1C(=O)N[C@@H](CC(N)=O)C(=O)N[C@H]2C(=O)N[C@H]3C(=O)N[C@H](C(=O)N[C@H](C(=O)O)c4cc(O)cc(O)c4-c4cc3ccc4O)[C@H](O)c3ccc(c(Cl)c3)Oc3cc2cc(c3O[C@@H]2O[C@H](CO)[C@@H](O)[C@H](O)[C@H]2O[C@H]2C[C@](C)(N)[C@H](O)[C@H](C)O2)Oc2ccc(cc2Cl)[C@H]1O [Vancomycin, reference compound]
MIC ([2]; Escherichia coli): 0.5 to 1 µg/mL (≈ 0.345 to 0.69 µM)
MIC (E. coli BTH101; Escherichia coli, BTH101, 24 h): > 64 µg/mL
MIC ([3]; Escherichia coli): 4 to 8 µg/mL (≈ 2.76 to 5.52 µM)
MIC (E. coli WT strain MG1655; Escherichia coli, MG1655, 24 h): > 64 µg/mL

Murepavadin
clinical toxicity [7]: nephrotoxicity
target selectivity [8]: selectively directed against Pseudomonas aeruginosa LptD

B1: LptC: Escherichia coli LptC lacking the first 23 residues of the transmembrane domain, with an N-terminal His-Tag (protein, UniProt P0ADV9 24-191, looked up, fragment)
chain: MAEKDDTAQVVVNNNDPTYKSEHTDTLVYNPEGALSYRLIAQHVEYYSDQAVSWFTQPVLTTFDKDKIPTWSVKADKAKLTNDRMLYLYGHVEVNALVPDSQLRRITTDNAQINLVTQDVTSEDLVTLYGTTFNSSGLKMRGNLRSKNAELIEKVRTSYEIQNKQTQP
modifications: N-terminal His-tag
notes: Escherichia coli LptC lacking the first 23 residues of the transmembrane domain, with an N-terminal His-Tag
Kd (immobilized LptAm): 80 ± 44 µM

B2: LptAm, LptA residues 28-159 followed by a … tag (purified) (domain or fragment, Escherichia coli, UniProt P0ADV1 28-159, looked up)
chain: VTGDTDQPIHIESDQQSLDMQGNVVTFTGNVIVTQGTIKINADKVVVTRPGGEQGKEVIDGYGKPATFYQMQDNGKPVEGHASQMHYELAKDFVVLTGNAYLQQVDSNIKGDKITYLVKEQKMQAFSDKGKR
notes: also called LptAΔ_(160–185)-His6; monomeric version of LptA; source: E. coli BL21(DE3) (pET21b vector), purified as described (Laguri et al., 2017)
Kd [9]: 80 ± 44 µM
